Results from patent publication US20100196290A1, “COMPOSITIONS COMPRISING BETULONIC ACID” (Valtion teknillinen tutkimuskeskus, priority 2006, published 2010).

What was measured:
[1] = system: bacteria; assay: Antibacterial activity, overall statement on the examples; assay type: cell-based; conditions: concentration of 1 μg/ml
Text: Erythromycin was used as the control.

[2] = system: Caco-2 cells; assay: Cytotoxicity tests, viability of Caco-2 cells (LDH, WST-1 and ATP methods); assay type: cell-based, human; conditions: 500 μM, exposure 24 hours
Procedure: Caco-2 cells (cell line used as a model for human intestine) were introduced in a 96 well plate in an amount of 35 000 cells (for LDH method), 45 000 cells (for WST-1 method), or 25 000 cells (for ATP method) per well. After cultivation of 24 hours, the cells were exposed to the compounds being tested for 24 hours by adding said compounds to the culture medium to give a concentration of 500 μM (as stock solutions in DMSO).
The influence of the compounds on the viability of the cells was measured by three different methods. Polymyxin B was used as the control. […] The amount of LDH in the sample due to exposure was quantified by means of an enzymatic reaction using the INT (iodonitrotetrazolium) colour reagent wherein the coloured reaction product formed was determined photometrically at 490 nm. In the WST-1 method, the metabolic activity of the cells after exposure was measured using the WST-1 reagent. Metabolic activity of a cell results in the generation of a coloured product from the reagent, said product being then used to evaluate the viability of the cells by photometric measurements (absorbance at 440 nm). In the ATP method, the amount of ATP within cells decreasing rapidly due to cellular damage was measured. In the method, ATP was luminometrically quantified by means of the ATP dependent luciferase-luciferin reaction. […]

SMILES | antibacterial activity [1] | cytotoxicity [2]
C=C(C)[C@@H]1CC[C@]2(C(=O)O)CC[C@]3(C)[C@H](CC[C@@H]4[C@@]5(C)CCC(=O)C(C)(C)[C@@H]5CC[C@]43C)[C@@H]12 [Yhdiste 5, betulonic acid] | considerable antibacterial activity | low cytotoxicity
C=C(C)[C@@H]1CC[C@]2(COC(=O)c3ccccc3NC(C)=O)CC[C@]3(C)C(CCC4[C@@]5(C)CC[C@H](O)C(C)(C)C5CC[C@]43C)C12 (stereo partly drawn) [Yhdiste 29, 28-N-acetylanthranilic acid ester of betulin] | considerable antibacterial activity | –
